Drawing on ChEMBL document CHEMBL1133000, “Inhibition of protein kinase C(alpha) by dequalinium analogues: dependence on linker length and geometry” (J Med Chem, 2000), this text covers IC50 for 3 compounds.

This assay addresses Protein kinase C alpha type (Homo sapiens, UniProt P17252). The experiment in a line: Inhibition of human recombinant PKCalpha.

A word on the IC50: it is the concentration that inhibits the measured activity by half. Turning to `Cc1cc(N)c2ccccc2[n+]1CCCC/C=C/CCCC[n+]1c(C)cc(N)c2ccccc21`, the IC50 amounted to 12 µM. For the compound `CCCC/C=C/CCCC[n+]1c(C)cc(N)c2ccccc21`, the IC50 was found to be 137 µM. `Cc1cc(N)c2ccccc2[n+]1CCCC/C=C\CCCC[n+]1c(C)cc(N)c2ccccc21`: the IC50 is 52 µM.
